Data from PubChem BioAssay AID248 (DTP/NCI, 2004).
Where “and” joins values, the source holds several entries; their conditions need not be identical. Identical values can stand only once. Toxic doses and inconclusive results are not listed. No stated cut-off is given here; in the data, active means T/C of 150% or more; inactive means T/C below 125%.

Tested on: L1210 leukemia ip in BDF1 mice, survival T/C
Assay: NCI In Vivo Anticancer Drug Screen. Data for tumor model L1210 Leukemia (intraperitoneal) in B6D2F1 (BDF1) mice
Settings: endpoint: mean survival time, higher = longer survival
Summary of the method: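 Read-out is survival time, reported as the treated-group measurement over the vehicle-control measurement.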

[1] = dose: 25.0 mg/kg/injection, schedule: Q01DX009 (ip), vehicle: saline
[2] = dose: 50.0 mg/kg/injection, schedule: Q04DX003 (ip), vehicle: saline
[3] = dose: 100.0 mg/kg/injection, schedule: Q01DX009 (ip), vehicle: Klucel (hydroxypropylcellulose) (HPC)
[4] = dose: 200.0 mg/kg/injection, schedule: Q01DX009 (ip), vehicle: Klucel (hydroxypropylcellulose) (HPC)
[5] = dose: 400.0 mg/kg/injection, schedule: Q01DX009 (ip), vehicle: Klucel (hydroxypropylcellulose) (HPC)
[6] = dose: 100.0 mg/kg/injection, schedule: Q01DX009 (ip), vehicle: saline with Tween-80
[7] = dose: 100.0 mg/kg/injection, schedule: Q01DX001 (ip), vehicle: carboxymethylcellulose (CMC)
[8] = dose: 100.0 mg/kg/injection, schedule: Q04DX003 (ip), vehicle: saline
[9] = dose: 200.0 mg/kg/injection, schedule: Q01DX001 (ip), vehicle: carboxymethylcellulose (CMC)
[10] = dose: 200.0 mg/kg/injection, schedule: Q04DX003 (ip), vehicle: saline
[11] = dose: 400.0 mg/kg/injection, schedule: Q04DX003 (ip), vehicle: saline
[12] = dose: 100.0 mg/kg/injection, schedule: Q01DX001 (ip), vehicle: saline
[13] = dose: 200.0 mg/kg/injection, schedule: Q01DX001 (ip), vehicle: saline
[14] = dose: 400.0 mg/kg/injection, schedule: Q01DX001 (ip), vehicle: saline
[15] = dose: 100.0 mg/kg/injection, schedule: Q01DX009 (ip), vehicle: saline
[16] = dose: 100.0 mg/kg/injection, schedule: Q04DX003 (ip), vehicle: Klucel (hydroxypropylcellulose) (HPC)
[17] = dose: 400.0 mg/kg/injection, schedule: Q04DX003 (ip), vehicle: Klucel (hydroxypropylcellulose) (HPC)
[18] = dose: 50.0 mg/kg/injection, schedule: Q01DX009 (ip), vehicle: Klucel (hydroxypropylcellulose) (HPC)
[19] = dose: 25.0 mg/kg/injection, schedule: Q04DX003 (ip), vehicle: Klucel (hydroxypropylcellulose) (HPC)
[20] = dose: 50.0 mg/kg/injection, schedule: Q04DX003 (ip), vehicle: Klucel (hydroxypropylcellulose) (HPC)

Measured: T/C

C[N+](C)(C)N=C1CCC2(CC1)c1ccccc1-c1ccccc12
inactive: dose: 12.5 mg/kg/injection, schedule: Q01DX009 (ip), vehicle: saline 95 % of control | dose: 12.5 mg/kg/injection, schedule: Q04DX003 (ip), vehicle: saline 103 % of control | [1] 93 % of control | dose: 25.0 mg/kg/injection, schedule: Q04DX003 (ip), vehicle: saline 100 % of control | [2] 95 % of control

CCCCOC(=O)c1ccc(NC(=O)NC)cc1
inactive: [3] 100 % of control | [4] 101 % of control | [5] 101 % of control

CN(C)CCN(C)/N=N/c1nc[nH]c1C(N)=O
inactive: dose: 100.0 mg/kg/injection, schedule: Q01DX001 (ip), vehicle: saline with Tween-80 101 % of control | [6] 108 % of control | dose: 100.0 mg/kg/injection, schedule: Q04DX003 (ip), vehicle: saline with Tween-80 108 % of control | dose: 200.0 mg/kg/injection, schedule: Q01DX001 (ip), vehicle: saline with Tween-80 95 % of control | dose: 200.0 mg/kg/injection, schedule: Q01DX009 (ip), vehicle: saline with Tween-80 100 % of control | dose: 200.0 mg/kg/injection, schedule: Q04DX003 (ip), vehicle: saline with Tween-80 113 % of control | dose: 400.0 mg/kg/injection, schedule: Q01DX001 (ip), vehicle: saline with Tween-80 110 % of control | dose: 400.0 mg/kg/injection, schedule: Q01DX009 (ip), vehicle: saline with Tween-80 95 % of control | dose: 400.0 mg/kg/injection, schedule: Q04DX003 (ip), vehicle: saline with Tween-80 106 % of control

O=S(=O)([O-])CC[n+]1ccc(-c2ccccc2)o1
inactive: [7] 94 % of control | [8] 110 % of control | [9] 97 % of control | [10] 103 % of control | dose: 400.0 mg/kg/injection, schedule: Q01DX001 (ip), vehicle: carboxymethylcellulose (CMC) 97 % of control | [11] 118 % of control

CCCCC(=O)N/N=C/c1c(O)ccc2ccccc12
inactive: [12] 94 % of control | [13] 94 % of control | [14] 92 % of control

COc1cc(C(=O)COC(C)=O)cc(OC)c1OC(C)=O
inactive: [12] 88 % of control | [13] 89 % of control | [14] 89 % of control

COc1ccc(NC(=O)CCN2CC2)cc1
inactive: dose: 12.5 mg/kg/injection, schedule: Q01DX001 (ip), vehicle: saline 105 % of control | dose: 25.0 mg/kg/injection, schedule: Q01DX001 (ip), vehicle: saline 97 % of control | dose: 25.0 mg/kg/injection, schedule: Q01DX009 (ip), vehicle: saline with Tween-80 103 % of control | dose: 50.0 mg/kg/injection, schedule: Q01DX001 (ip), vehicle: saline 103 % of control | dose: 50.0 mg/kg/injection, schedule: Q01DX009 (ip), vehicle: saline with Tween-80 95 % of control | dose: 100.0 mg/kg/injection, schedule: Q01DX001 (ip), vehicle: alcohol 93 % of control | [6] 91 % of control | dose: 200.0 mg/kg/injection, schedule: Q01DX001 (ip), vehicle: alcohol 86 % of control

C[N+]1(C)C2CCCCC1CC(=O)C2
inactive: dose: 10.0 mg/kg/injection, schedule: Q01DX001 (ip), vehicle: saline 96 % of control | dose: 20.0 mg/kg/injection, schedule: Q01DX001 (ip), vehicle: saline 98 % of control | dose: 40.0 mg/kg/injection, schedule: Q01DX001 (ip), vehicle: saline 95 % of control

CN(C)C(=S)N(C(=S)N(C)C)c1ccc(Cl)cc1
inactive: [12] 101 % of control | [13] 92 % of control | [14] 97 % of control

S=C(NCc1ccccc1)NC1CCCCC1
inactive: [1] 97 % of control | dose: 50.0 mg/kg/injection, schedule: Q01DX009 (ip), vehicle: saline 100 % of control | [2] 92 % of control | [15] 96 % of control | [8] 102 % of control

CN1CCCCCC1
inactive: dose: 50.0 mg/kg/injection, schedule: Q01DX009 (ip), vehicle: acetone 86 % of control | dose: 100.0 mg/kg/injection, schedule: Q01DX009 (ip), vehicle: acetone 110 % of control

O=[N+]([O-])c1ccccc1C(c1ccc2ccccc2c1O)N1CCOCC1 (stereo unspecified)
inactive: dose: 100.0 mg/kg/injection, schedule: Q01DX001 (ip), vehicle: saline sonified 86 % of control | dose: 200.0 mg/kg/injection, schedule: Q01DX001 (ip), vehicle: saline sonified 91 % of control | dose: 400.0 mg/kg/injection, schedule: Q01DX001 (ip), vehicle: saline sonified 90 % of control

CC(=O)NC1=C(Oc2ccc(C)cc2)C(=O)c2ccccc2C1=O
inactive: dose: 75.0 mg/kg/injection, schedule: Q01DX001 (ip), vehicle: saline 98 % of control | dose: 150.0 mg/kg/injection, schedule: Q01DX001 (ip), vehicle: saline 96 % of control

CCCCCCCCCCCCCCCCOc1ccc(C(=S)N2CCOCC2)cc1Cl
inactive: [16] 104 % of control | dose: 200.0 mg/kg/injection, schedule: Q04DX003 (ip), vehicle: Klucel (hydroxypropylcellulose) (HPC) 91 % of control | [17] 86 % of control

Cc1cccc2cc3ccc4ccccc4c3cc12
inactive: [3] 102 % of control | dose: 100.0 mg/kg/injection, schedule: Q04DX003 (ip), vehicle: other 101 % of control | [4] 95 % of control | dose: 200.0 mg/kg/injection, schedule: Q04DX003 (ip), vehicle: other 101 % of control | [5] 101 % of control | dose: 400.0 mg/kg/injection, schedule: Q04DX003 (ip), vehicle: other 95 % of control

COc1ccc(-c2ccns2)cc1
inactive: [7] 93 % of control | [9] 92 % of control

ClC1(Cl)OC(Cl)(Cl)C(Cl)(Cl)OC1(Cl)Cl
inactive: [18] 98 % of control | [3] 98 % of control | [4] 102 % of control

C=CCNC(=S)Nc1ccc(OC(=O)Nc2ccc(Cl)c(Cl)c2)cc1
inactive: dose: 100.0 mg/kg/injection, schedule: Q04DX002 (ip), vehicle: saline with Tween-80 102 % of control | dose: 200.0 mg/kg/injection, schedule: Q04DX002 (ip), vehicle: saline with Tween-80 97 % of control | dose: 400.0 mg/kg/injection, schedule: Q04DX002 (ip), vehicle: saline with Tween-80 105 % of control

O=C(CCCNC(=O)OCc1ccccc1)NCCCCCCCCCCNC(=O)CCCNC(=O)OCc1ccccc1
inactive: dose: 10.0 mg/kg/injection, schedule: Q01DX012 (ip), vehicle: saline 102 % of control | dose: 30.0 mg/kg/injection, schedule: Q01DX012 (ip), vehicle: saline 96 % of control | dose: 100.0 mg/kg/injection, schedule: Q01DX012 (ip), vehicle: saline 90 % of control | dose: 300.0 mg/kg/injection, schedule: Q01DX012 (ip), vehicle: saline 91 % of control

COc1ccc(N=NN(C(C)=O)c2ccccc2)cc1
inactive: [3] 111 % of control | [8] 102 % of control | [4] 110 % of control | [10] 111 % of control | [5] 96 % of control | [11] 123 % of control

C=CCc1cc(CN(CCOCC)Cc2cc(CC=C)cc(OC)c2O)c(O)c(OC)c1
inactive: dose: 12.5 mg/kg/injection, schedule: Q04DX003 (ip), vehicle: Klucel (hydroxypropylcellulose) (HPC) 97 % of control | [19] 95 % of control | [20] 94 % of control

CCOC(=O)CNC(=O)C(CSSCC(NC(=O)OCc1ccccc1)C(=O)NCC(=O)OCC)NC(=O)OCc1ccccc1 (stereo unspecified)
inactive: [19] 95 % of control | [18] 100 % of control | [20] 104 % of control | [3] 103 % of control | [16] 104 % of control and 90 % of control | [4] 92 % of control

CC1=Nc2ccccc2NC(C)C1C (stereo unspecified)
inactive: dose: 12.5 mg/kg/injection, schedule: Q01DX009 (ip), vehicle: Klucel (hydroxypropylcellulose) (HPC) 100 % of control | dose: 25.0 mg/kg/injection, schedule: Q01DX009 (ip), vehicle: Klucel (hydroxypropylcellulose) (HPC) 96 % of control | [18] 108 % of control | [15] 91 % of control

O=[N+]([O-])c1ccccc1N=N/C(Cc1ccccc1)=N\Nc1ccccc1
inactive: [18] 92 % of control | [3] 92 % of control | [16] 89 % of control | [4] 93 % of control | [5] 94 % of control | [17] 92 % of control
